Among the data in patent publication US10894784B2, “Heteroarylbenzimidazole compounds” (BAYER PHARMA AKTIENGESELLSCHAFT, priority 2015, dated 2021) are IC50 values, retold here.

Sequence of TBK1 (Q9UHD2 whole entry): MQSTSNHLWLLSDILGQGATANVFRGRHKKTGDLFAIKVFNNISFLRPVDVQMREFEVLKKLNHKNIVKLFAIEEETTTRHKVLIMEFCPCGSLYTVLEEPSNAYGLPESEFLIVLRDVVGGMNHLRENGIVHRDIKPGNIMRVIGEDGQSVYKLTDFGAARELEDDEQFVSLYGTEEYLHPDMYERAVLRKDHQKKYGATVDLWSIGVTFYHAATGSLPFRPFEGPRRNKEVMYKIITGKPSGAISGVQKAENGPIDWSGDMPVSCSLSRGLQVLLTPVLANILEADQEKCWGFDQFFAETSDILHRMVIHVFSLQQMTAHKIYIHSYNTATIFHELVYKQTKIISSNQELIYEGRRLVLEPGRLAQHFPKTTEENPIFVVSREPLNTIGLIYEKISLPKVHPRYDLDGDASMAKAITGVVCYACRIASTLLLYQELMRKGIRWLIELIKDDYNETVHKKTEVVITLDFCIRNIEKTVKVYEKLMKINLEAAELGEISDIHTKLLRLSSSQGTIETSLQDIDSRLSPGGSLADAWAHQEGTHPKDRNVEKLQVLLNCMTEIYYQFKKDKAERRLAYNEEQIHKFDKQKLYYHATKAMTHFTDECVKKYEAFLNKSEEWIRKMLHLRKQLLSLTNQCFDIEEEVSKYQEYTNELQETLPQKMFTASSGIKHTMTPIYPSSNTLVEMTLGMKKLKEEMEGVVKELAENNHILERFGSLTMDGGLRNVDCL

The experiment has as its target TBK1 (Homo sapiens (Human), UniProt Q9UHD2). In words: TBK1 low ATP kinase assay (in vitro assay 1). In kind it is biochemical. The settings on record: in vitro assay 1, read-out: TBK1 low ATP kinase assay IC50.
A word on the IC50: it is the concentration that gives 50% inhibition. As to `CCN(CC)c1cc(-c2ccc3nc(Nc4cc(CN5CCN(C(=O)CC(F)(F)F)CC5)ccn4)[nH]c3c2)ncn1` [Example 155.02, 1-(4-{[2-({6-[6-(diethylamino)pyrimidin-4-yl]-1H-benzimidazol-2-yl}amino)pyridin-4-yl]methyl}piperazin-1-yl)-3,3,3-trifluoropropan-1-one], the IC50 is 15 nM. Then `Cc1nnc(-c2ccc3nc(Nc4cc(CN5CCN(C(=O)C6CC6)CC5)ccn4)[nH]c3c2)o1` [Example 66.01.02, cyclopropyl{4-[(2-{[6-(5-methyl-1,3,4-oxadiazol-2-yl)-1H-benzimidazol-2-yl]amino}pyridin-4-yl)methyl]piperazin-1-yl}methanone], with 33 nM; and `O=C(CC(F)(F)F)N1CCN(Cc2ccnc(Nc3nc4ccc(-c5ccncc5C(F)(F)F)cc4[nH]3)c2)CC1` [Example 106.01, 3,3,3-trifluoro-1-(4-{[2-({6-[3-(trifluoromethyl)pyridin-4-yl]-1H-benzimidazol-2-yl}amino)pyridin-4-yl]methyl}piperazin-1-yl)propan-1-one], with 1500 nM.

As for `CC(c1ccnc(Nc2nc3ccc(-c4cnn(CC5CC5(F)F)c4)cc3[nH]2)c1)N1CCN(C(=O)CC(F)(F)F)CC1` (single isomer, unassigned) [Example 55.02, 1-{4-[(1R or 1S)-1-(2-{[6-(1-{[(1RS)-2,2-difluorocyclopropyl]methyl}-1H-pyrazol-4-yl)-1H-benzimidazol-2-yl]amino}pyridin-4-yl)ethyl]piperazin-1-yl}-3,3,3-trifluoropropan-1-one], the IC50 worked out at 1.06 nM.

In the case of `Cc1nccc(-c2ccc3nc(Nc4cc(C(C)N5CCN(C(=O)CC(F)(F)F)CC5)ccn4)[nH]c3c2)n1` (racemic) [Example 24.04.03, (rac)-3,3,3-trifluoro-1-{4-[1-(2-{[6-(2-methylpyrimidin-4-yl)-1H-benzimidazol-2-yl]amino}pyridin-4-yl)ethyl]piperazin-1-yl}propan-1-one], the IC50 amounted to 12.4 nM.

In the case of `CC(c1ccnc(Nc2nc3ccc(-c4ccnn4C)cc3[nH]2)c1)N1CCN(C(=O)C2CC2)CC1` (single isomer, unassigned) [Example 123.03, cyclopropyl{4-[(1R or 1S)-1-(2-{[6-(1-methyl-1H-pyrazol-5-yl)-1H-benzimidazol-2-yl]amino}pyridin-4-yl)ethyl]piperazin-1-yl}methanone], the 50% inhibitory concentration (IC50) came out at 26 nM. Then `COc1c(-c2ccc3nc(Nc4cc(C(C)N5CCN(C(=O)CC(F)(F)F)CC5)ccn4)[nH]c3c2)ncnc1N1CCC1` (single isomer, unassigned) [Example 111.03, 1-(4-{(1R or 1S)-1-[2-({6-[6-(azetidin-1-yl)-5-methoxypyrimidin-4-yl]-1H-benzimidazol-2-yl}amino)pyridin-4-yl]ethyl}piperazin-1-yl)-3,3,3-trifluoropropan-1-one], with 1.4 nM; and `CC(C)Nc1ncnc(-c2ccc3nc(Nc4cc(CN5CCN(C(=O)C6CC6)CC5)ccn4)[nH]c3c2)c1F` [Example 193.03, cyclopropyl(4-{[2-({6-[5-fluoro-6-(propan-2-ylamino)pyrimidin-4-yl]-1H-benzimidazol-2-yl}amino)pyridin-4-yl]methyl}piperazin-1-yl)methanone], with 17.8 nM; and `CC(c1ccnc(Nc2nc3ccc(-c4cnn(CC5CCC5)c4)c(Cl)c3[nH]2)c1)N1CCN(C(=O)C2CC2)CC1` (single isomer, unassigned) [Example 75.03, (4-{(1R or 1S)-1-[2-({7-chloro-6-[1-(cyclobutylmethyl)-1H-pyrazol-4-yl]-1H-benzimidazol-2-yl}amino)pyridin-4-yl]ethyl}piperazin-1-yl)(cyclopropyl)methanone], with 0.88 nM. The value for `COc1ccc(-c2ccc3nc(Nc4cc(CN5CCN(C(=O)C6CC6)CC5)ccn4)[nH]c3c2)cn1` [Example 13.02, cyclopropyl{4-[(2-{[6-(6-methoxypyridin-3-yl)-1H-benzimidazol-2-yl]amino}pyridin-4-yl)methyl]piperazin-1-yl}methanone] was 166 nM; that for `COc1cncnc1-c1ccc2nc(Nc3cc(CN4CCN(S(=O)(=O)C5CCOCC5)CC4)ccn3)[nH]c2c1` [Example 35.01.14, 6-(5-methoxypyrimidin-4-yl)-N-(4-{[4-(tetrahydro-2H-pyran-4-ylsulfonyl)piperazin-1-yl]methyl}pyridin-2-yl)-1H-benzimidazol-2-amine] was 22.8 nM; that for `CCOc1nccc(-c2ccc3nc(Nc4cc(CN5CCN(C(=O)CC(F)(F)F)CC5)ccn4)[nH]c3c2)n1` [Example 26.01.03, 1-{4-[(2-{[6-(2-ethoxypyrimidin-4-yl)-1H-benzimidazol-2-yl]amino}pyridin-4-yl)methyl]piperazin-1-yl}-3,3,3-trifluoropropan-1-one] was 13 nM.

In the case of `COc1cncnc1-c1ccc2nc(Nc3cc(CN4CCN(S(=O)(=O)N5CC(C)OC(C)C5)CC4)ccn3)[nH]c2c1` (stereo not shown) [Example 35.01.18, N-[4-({4-[(2,6-dimethylmorpholin-4-yl)sulfonyl]piperazin-1-yl}methyl)pyridin-2-yl]-6-(5-methoxypyrimidin-4-yl)-1H-benzimidazol-2-amine], the IC50 stood at 41.8 nM. Then `COc1c(NCC2CC2)ncnc1-c1ccc2nc(Nc3cc(C(C)N4CCN(C(=O)C5CC5)CC4)ccn3)[nH]c2c1` (single isomer, unassigned) [Example 109.02.02, cyclopropyl{4-[(1R or 1S)-1-{2-[(6-{6-[(cyclopropylmethyl)amino]-5-methoxypyrimidin-4-yl}-1H-benzimidazol-2-yl)amino]pyridin-4-yl}ethyl]piperazin-1-yl}methanone], with 2 nM; and `Cn1ncnc1-c1ccc2nc(Nc3cc(CN4CCN(C(=O)C5CC5)CC4)ccn3)[nH]c2c1` [Example 41.03, cyclopropyl{4-[(2-{[6-(1-methyl-1H-1,2,4-triazol-5-yl)-1H-benzimidazol-2-yl]amino}pyridin-4-yl)methyl]piperazin-1-yl}methanone], with 770 nM; and `COc1cc(-c2ccc3nc(Nc4cc(CN5CCN(C(=O)C6CC6)CC5)ccn4)[nH]c3c2)ncn1` [Example 163.03, cyclopropyl{4-[(2-{[6-(6-methoxypyrimidin-4-yl)-1H-benzimidazol-2-yl]amino}pyridin-4-yl)methyl]piperazin-1-yl}methanone], with 18 nM. The value for `O=C(C1CCC1)N1CCN(Cc2ccnc(Nc3nc4ccc(-c5ccnc(C(F)(F)F)n5)cc4[nH]3)c2)CC1` [Example 27.02, cyclobutyl(4-{[2-({6-[2-(trifluoromethyl)pyrimidin-4-yl]-1H-benzimidazol-2-yl}amino)pyridin-4-yl]methyl}piperazin-1-yl)methanone] was 220 nM. Regarding `Cc1cc(-c2ccc3nc(Nc4cc(CN5CCN(C(=O)C6CC6)CC5)ccn4)[nH]c3c2)cc(C#N)n1` [Example 136.03, 4-{2-[(4-{[4-(cyclopropylcarbonyl)piperazin-1-yl]methyl}pyridin-2-yl)amino]-1H-benzimidazol-6-yl}-6-methylpyridine-2-carbonitrile], the IC50 was 21 nM. Then `CCOc1nccc(-c2ccc3nc(Nc4cc(CN5CCN(C(=O)C6CC6)CC5)ccn4)[nH]c3c2)n1` [Example 26.01.02, cyclopropyl{4-[(2-{[6-(2-ethoxypyrimidin-4-yl)-1H-benzimidazol-2-yl]amino}pyridin-4-yl)methyl]piperazin-1-yl}methanone], with 8.58 nM.
